How the values were obtained:
Endothelial lipase (EL) = Endothelial lipase (EL) (Homo sapiens (Human), UniProt Q9Y5X9); test: EL assay: endothelial lipase activity with fluorescent substrate A10070 in DMPG vesicles; format: biochemical
In short: (§1)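 Compounds were preincubated with enzyme for 30 min at 37° C before FRET-substrate vesicles (A10070 in DMPG, 0.11 mole fraction) were added. Reaction rates were obtained from the 300–900 sec slope of fluorescence at 490/530 nm.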

hepatic lipase (HL) = hepatic lipase (HL) (Homo sapiens (Human), UniProt P11150); test: HL assay: hepatic lipase activity with fluorescent substrate A10070 in DMPG vesicles; format: biochemical
Sequence of hepatic lipase (HL) (P11150 23-499, species assumed): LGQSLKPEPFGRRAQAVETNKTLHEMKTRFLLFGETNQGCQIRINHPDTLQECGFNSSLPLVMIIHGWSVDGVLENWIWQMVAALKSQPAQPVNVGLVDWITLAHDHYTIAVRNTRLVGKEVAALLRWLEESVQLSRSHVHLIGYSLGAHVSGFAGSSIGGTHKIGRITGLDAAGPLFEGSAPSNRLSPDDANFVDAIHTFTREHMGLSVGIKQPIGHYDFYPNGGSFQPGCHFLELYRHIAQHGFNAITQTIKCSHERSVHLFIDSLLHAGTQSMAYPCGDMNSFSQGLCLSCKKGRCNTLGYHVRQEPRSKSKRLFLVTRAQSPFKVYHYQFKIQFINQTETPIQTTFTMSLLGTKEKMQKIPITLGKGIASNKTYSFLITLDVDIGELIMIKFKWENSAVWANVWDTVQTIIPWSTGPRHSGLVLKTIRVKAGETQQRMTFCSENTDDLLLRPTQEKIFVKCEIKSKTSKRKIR
In short: as §1

Sequence of Endothelial lipase (EL) (Q9Y5X9 21-500): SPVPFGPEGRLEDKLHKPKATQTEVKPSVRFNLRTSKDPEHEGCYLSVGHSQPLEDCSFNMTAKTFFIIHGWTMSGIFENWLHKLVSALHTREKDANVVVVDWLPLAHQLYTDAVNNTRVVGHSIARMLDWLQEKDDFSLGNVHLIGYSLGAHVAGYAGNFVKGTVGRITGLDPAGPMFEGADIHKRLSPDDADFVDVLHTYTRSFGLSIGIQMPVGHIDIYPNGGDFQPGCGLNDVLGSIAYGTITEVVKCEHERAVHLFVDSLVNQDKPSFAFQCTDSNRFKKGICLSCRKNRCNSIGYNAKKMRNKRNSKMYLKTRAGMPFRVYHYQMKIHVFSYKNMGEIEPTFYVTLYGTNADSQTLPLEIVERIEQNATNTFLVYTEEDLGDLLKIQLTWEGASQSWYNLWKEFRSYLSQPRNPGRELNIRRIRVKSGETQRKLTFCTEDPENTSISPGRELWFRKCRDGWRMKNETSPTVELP

| SMILES | IC50 (Endothelial lipase (EL)) [nM] | IC50 (hepatic lipase (HL)) [nM] |
| --- | --- | --- |
| Cc1cc2nc(C(C(=O)NCCS(N)(=O)=O)S(=O)(=O)Cc3ccccc3)sc2cc1-c1ccc(C(=O)N2CCCCC2)cc1 (stereo not shown) [Example B348, 2-{5-methyl-6-[4-(piperidine-1-carbonyl)phen-yl]-1,3-benzothiazol-2-yl}-2-phenylmethane-sulfonyl-N-(2-sulfamoylethyl)acetamide] | 1 | 37.1 |
| Cc1cc2nc(C(C(=O)NCCS(N)(=O)=O)S(C)(=O)=O)sc2cc1-c1ccc(C(=O)N2CC(C)(O)C2)cc1 (stereo not shown) [Example B349, 2-{6-[4-(3-hydroxy-3-methylazetidine-1-carbonyl)phenyl]-5-methyl-1,3-benzothiazol-2-yl}-2-methanesulfonyl-N-(2-sulfamoylethyl)a-cetamide] | 2.3 | 347 |
| Cc1cc2nc(C(C(=O)NCCS(N)(=O)=O)S(C)(=O)=O)sc2cc1-c1ccc(C(=O)N2CCOCC2)cc1 (stereo not shown) [Example B350, 2-methanesulfonyl-2-{5-methyl-6-[4-(morpholine-4-carbonyl)phenyl]-1,3-benzothiazol-2-yl}-N-(2-sulfamoylethyl)acetamide] | 3.2 | 90.5 |
| NS(=O)(=O)CCNC(=O)C(c1nc2ccc(-c3ccc(C(=O)N4CCCCC4)cc3)cc2s1)S(=O)(=O)Cc1ccccc1 (stereo not shown) [Example B351, 2-phenylmethanesulfonyl-2-{6-[4-(piperidine-1-carbonyl)phenyl]-1,3-benzothiazol-2-yl}-N-(2-sulfamoylethyl)acetamide] | 6.2 | 14.9 |
| CS(=O)(=O)C(C(=O)NCCS(N)(=O)=O)c1nc2cc(-c3ccccc3F)ccc2s1 (stereo not shown) [Example B352, 2-[5-(2-fluorophenyl)-1,3-benzothiazol-2-yl]-2-methanesulfonyl-N-(2-sulfamoylethyl)acetamide] | 0.8 | 13.7 |
| CC1(O)CN(C(=O)c2ccc(-c3ccc4nc(C(C(=O)NCCS(N)(=O)=O)S(=O)(=O)Cc5ccc(F)cc5)sc4c3)cc2)C1 (stereo not shown) [Example B353, 2-[(4-fluorophenyl)meth-anesulfonyl]-2-{6-[4-(3-hydroxy-3-methylazetidine-1-carbonyl)phcnyl]-1,3-benzothiazol-2-yl}-N-(2-sulfamoylethyl)acetamide] | 2 | 18.5 |
| CO[C@@H]1CCN(C(=O)c2ccc(-c3ccc4nc(C(C(=O)NCCS(N)(=O)=O)S(=O)(=O)Cc5ccc(OC(F)(F)F)cc5)sc4c3)cc2)C1 (stereo partly drawn) [Example B354, 2-(6-{4-[(3R)-3-methoxy-pyrrolidine-1-carbonyl]phen-yl}-1,3-benzothiazol-2-yl)-N-(2-sulfamoyl-ethyl)-2-{[4-(trifluoro-methoxy)phenyl]methane-sulfonyl}acetamide] | 3.8 | 553 |
| NS(=O)(=O)CCNC(=O)C(c1nc2ccc(-c3ccc(C(=O)N4CC(F)C4)cc3)cc2s1)S(=O)(=O)Cc1ccc(OC(F)(F)F)cc1 (stereo not shown) [Example B355, 2-{6-[4-(3-fluoroazetidine-1-carbonyl)phenyl]-1,3-benzothiazol-2-yl}-N-(2-sulfamoylethyl)-2-{[4-(trifluoromethoxy)phen-yl]methanesulfonyl}a-cetamide] | 6.6 | 235 |
| CO[C@H]1CCN(C(=O)c2ccc(-c3ccc4nc(C(C(=O)NCCS(N)(=O)=O)S(=O)(=O)Cc5ccc(OC(F)(F)F)cc5)sc4c3)cc2)C1 (stereo partly drawn) [Example B356, 2-(6-{4-[(3S)-3-methoxy-pyrrolidine-1-carbonyl]phen-yl}-1,3-benzothiazol-2-yl)-N-(2-sulfamoyl-ethyl)-2-{[4-(trifluoro-methoxy)phenyl]methane-sulfonyl}acetamide] | 2.7 | 26.7 |
| NS(=O)(=O)CCNC(=O)C(c1nc2ccc(-c3ccc(C(=O)N4CC(F)(F)C4)cc3)cc2s1)S(=O)(=O)Cc1ccc(C(F)(F)F)cc1 (stereo not shown) [Example B357, 2-{6-[4-(3,3-difluoro-azetidine-1-carbonyl)phen-yl]-1,3-benzothiazol-2-yl}-N-(2-sulfamoyl-ethyl)-2-{[4-(trifluoromethyl)phen-yl]methanesulfonyl}a-cetamide] | 15 | 93.2 |
| NS(=O)(=O)CCNC(=O)C(c1nc2ccc(-c3ccc4c(c3)CNC4=O)cc2s1)S(=O)(=O)Cc1ccc(C(F)(F)F)cc1 (stereo not shown) [Example B358, 2-[6-(1-oxo-2,3-dihydro-1H-isoindol-5-yl)-1,3-benzothiazol-2-yl]-N-(2-sulfamoylethyl)-2-{[4-(trifluoromethyl)phen-yl]methanesulfonyl}a-cetamide] | 3.7 | 67.6 |
| NS(=O)(=O)CCNC(=O)C(c1nc2ccc(-c3ccc(C(=O)N4CC(F)(F)C4)cc3)cc2s1)S(=O)(=O)Cc1cccc(C(F)(F)F)c1 (stereo not shown) [Example B359, 2-{6-[4-(3,3-difluoro-azetidine-1-carbonyl)phen-yl]-1,3-benzothiazol-2-yl}-N-(2-sulfamoyl-ethyl)-2-{[3-(trifluoromethyl)phen-yl]methanesulfonyl}a-cetamide] | 4.7 | 47 |
| CC1(O)CN(C(=O)c2ccc(-c3ccc4nc(C(C(=O)NCCS(N)(=O)=O)S(=O)(=O)Cc5cccc(C(F)(F)F)c5)sc4c3)cc2)C1 (stereo not shown) [Example B360, 2-{6-[4-(3-hydroxy-3-methylazetidine-1-carbonyl)phenyl]-1,3-benzothiazol-2-yl}-N-(2-sulfamoylethyl)-2-{[3-(trifluoromethyl)phen-yl]methanesulfonyl}a-cetamide] | 6.2 | 471 |
| Cn1cc(-c2ccc3nc(C(C(=O)NCCS(N)(=O)=O)S(=O)(=O)Cc4ccc(C(F)(F)F)cc4)sc3c2)ccc1=O (stereo not shown) [Example B361] | 121 | 1230 |
| CC1(O)CN(C(=O)c2ccc(-c3ccc4nc(C(C(N)=O)S(=O)(=O)Cc5ccc(OC(F)(F)F)cc5)sc4c3)cc2)C1 (stereo not shown) [Example B362, 2-{6-[4-(3-hydroxy-3-methylazetidine-1-carbonyl)phenyl]-1,3-benzothiazol-2-yl}-2-{[4-(trifluoromethoxy)phen-yl]methanesulfonyl}a-cetamide] | 158 | 30.3 |
| CC(C)(O)Cn1ccc(-c2ccc3nc(C(C(=O)NCCS(N)(=O)=O)S(=O)(=O)Cc4ccc(F)cc4)sc3c2)cc1=O (stereo not shown) [Example B363, 2-[(4-fluorophenyl)meth-anesulfonyl]-2-{6-[1-(2-hydroxy-2-methylpropyl)-2-oxo-1,2-dihydropyridin-4-yl]-1,3-benzothiazol-2-yl}-N-(2-sulfamoylethyl)acetamide] | 11.6 | 10000 |
| Cn1ccc(-c2ccc3nc(C(C(=O)NCCS(N)(=O)=O)S(=O)(=O)Cc4ccc(C(F)(F)F)cc4)sc3c2)cc1=O (stereo not shown) [Example B364, 2-[6-(1-methyl-2-oxo-1,2-dihydropyridin-4-yl)-1,3-benzothiazol-2-yl]-N-(2-sulfamoylethyl)-2-{[4-(trifluoromethyl)phen-yl]methanesulfonyl}a-cetamide] | 28.3 | 10000 |
| NS(=O)(=O)CCNC(=O)C(c1nc2ccc(-c3ccccc3F)cc2s1)S(=O)(=O)Cc1ccc(OC(F)(F)F)cc1 (stereo not shown) [Example B365, 2-[6-(2-fluorophenyl)-1,3-benzothiazol-2-yl]-N-(2-sulfamoylethyl)-2-{[4-(trifluoromethoxy)phen-yl]methanesulfonyl}a-cetamide] | 17.2 | 2.1 |
| Cn1cc(-c2ccc3nc(C(C(=O)NCCS(N)(=O)=O)S(=O)(=O)Cc4cccc(C(F)(F)F)c4)sc3c2)ccc1=O (stereo not shown) [Example B366, 2-[6-(1-methyl-6-oxo-1,6-dihydropyridin-3-yl)-1,3-benzothiazol-2-yl]-N-(2-sulfamoylethyl)-2-{[3-(trifluoromethyl)phen-yl]methanesulfonyl}a-cetamide] | 4.4 | 219 |
| COCCn1ccc(-c2ccc3nc(C(C(=O)NCCS(N)(=O)=O)S(=O)(=O)Cc4ccc(C(F)(F)F)cc4)sc3c2)cc1=O (stereo not shown) [Example B367, 2-{6-[1-(2-methoxyethyl)-2-oxo-1,2-dihydropyridin-4-yl]-1,3-benzothiazol-2-yl}-N-(2-sulfamoylethyl)-2-{[4-(trifluoromethyl)phen-yl]methanesulfonyl}a-cetamide] | 13.5 | 2210 |
| Cn1ccc(-c2ccc3nc(C(C(=O)NCCS(N)(=O)=O)S(=O)(=O)Cc4ccc(OC(F)(F)F)cc4)sc3c2)cc1=O (stereo not shown) [Example B368, 2-[6-(1-methyl-2-oxo-1,2-dihydropyridin-4-yl)-1,3-benzothiazol-2-yl]-N-(2-sulfamoylethyl)-2-{[4-(trifluoromethoxy)phen-yl]methanesulfonyl}a-cetamide] | 15.8 | 1600 |
| CS(=O)(=O)C(C(=O)NCCS(N)(=O)=O)c1nc2cc(-c3ccnc(F)c3)ccc2s1 (stereo not shown) [Example B369, 2-[5-(2-fluoropyridin-4-yl)-1,3-benzothiazol-2-yl]-2-methanesulfonyl-N-(2-sulfamoylethyl)acetamide] | 1.5 | 414 |
| COCCOc1ccc(-c2ccc3sc(C(C(=O)NCCS(N)(=O)=O)S(C)(=O)=O)nc3c2)cc1 (stereo not shown) [Example B370, 2-methanesulfonyl-2-{5-[4-(2-methoxyethoxy)phen-yl]-1,3-benzothiazol-2-yl}-N-(2-sulfamoylethyl)a-cetamide] | 1.8 | 15.5 |
| CC(=O)Nc1ccc(-c2ccc3sc(C(C(=O)NCCS(N)(=O)=O)S(C)(=O)=O)nc3c2)cc1 (stereo not shown) [Example B371, 2-[5-(4-acetamidophenyl)-1,3-benzothiazol-2-yl]-2-methanesulfonyl-N-(2-sulfamoylethyl)acetamide] | 3 | 96.3 |
| CS(=O)(=O)C(C(=O)NCCS(N)(=O)=O)c1nc2cc(-c3ccc(F)nc3)ccc2s1 (stereo not shown) [Example B372, 2-[5-(6-fluoropyridin-3-yl)-1,3-benzothiazol-2-yl]-2-methanesulfonyl-N-(2-sulfamoylethyl)acetamide] | 2.5 | 124 |
| CS(=O)(=O)C(C(=O)NCCS(N)(=O)=O)c1nc2cc(-c3cnoc3)ccc2s1 (stereo not shown) [Example B373, 2-methanesulfonyl-2-[5-(1,2-oxazol-4-yl)-1,3-benzothiazol-2-yl]-N-(2-sulfamoylethyl)acetamide] | 3.3 | 45.7 |
